Laboratory results published in US20180028553A1, “USE OF STING AGONIST AS CANCER TREATMENT” (The University of Chicago, priority 2013, published 2018).
“Also recorded” adds a separate entry of the source.

What was measured:
Ag104L tumors = assay: Intratumoral treatment of Ag104L tumors; type: in vivo, mouse; details: C3H mice, single IT dose of 500 μg DMXAA
Method: (§1) In vivo tumor experiments. 10^6 of B16-SIY tumor cells, 5×10^4 B16.F10 tumor cells, 10^5 4T1 and CT26, or 10^6 other tumor cells were injected s.c. in 100 μl DPBS or HBSS on the right flank of mice. Following tumor implantation, mice were randomized into treatment groups. […] Measurements of tumors were performed twice per week using calipers, and the tumor volume was calculated with the formula: V=(length×width^2)/2. In some experiments, tumor-free survivors were rechallenged with tumor cells on the opposite flank several weeks after the injection of the primary tumor. Naïve mice were used as controls. For the contralateral experiments, mice were implanted on both flanks and only one tumor was treated. For the B16 melanoma lung metastasis experiments, mice were implanted on the flank with 5×10^4 cells B16.F10 on day 0, and then injected intravenously with 1×10^5 cells on day 7. Lungs were harvested on day 28. Administration of compounds, measurements of tumors and counting of lung tumors were performed in a blinded fashion.

tumors = details: background statement; cited from earlier work
SIY antigen = assay: IFN-γ ELISPOT and SIY-pentamer staining in B16.SIY tumor-bearing mice; type: in vivo, mouse
Method: The mouse IFN-γ enzyme-linked Immunospot assay (ELISPOT) from BD is used according to the manufacturer's protocol. In brief, splenocytes are plated at 10^6 cells/well and stimulated overnight with SIY peptide (160 nM), PMA (50 ng/ml) and ionomycin (0.5 μM) as positive control, or medium (DMEM supplemented with 10% heat-inactivated FCS, penicillin, streptomycin, L-arginine, L-glutamine, folic acid, and L-asparagine) as negative control. IFN-γ spots are detected using biotinylated antibody and avidin-peroxidase and developed using AEC substrate (BD Bioscience). Plates are read in an Immunospot Series 3 Analyzer and analyzed with ImmunoSpot software (Cellular Technology Ltd).
5×10^6 cells/sample are labeled with PE-MHC class I tetramers (Beckman Coulter or Proimmune) consisting of murine H-2Kb complexed to either […] (SIY) peptide or […] (OVA) peptide as a negative control, anti-TCRβ-AF700 (clone H57-597), antiCD8-PO (clone 5H10), anti-CD4-PB (clone RM4-5), anti CD62L-PE_Cy7 (clone MEL-14), anti-CD44-APC (clone IM7) and the Fixable Viability dye eFluor780 (eBioScience). FACS analysis is performed using FACSCanto or LSR II cytometers with FACSDiva software (BD). Data analysis is conducted with FlowJo software (Tree Star).
IFN-γ ELISPOT and SIY-pentamer staining. […] For the ELISPOTs, 10^6 splenocytes were plated per well and stimulated overnight with SIY peptide (160 nM) or AH1 (1 μM) peptide, with PMA (50 ng/ml) plus ionomycin (0.5 μM) as a positive control, or medium as negative control. Spots were developed using the BD mouse IFN-γ kit according to the manufacturer's instructions and the number of spots was measured using an Immunospot Series 3 Analyzer and analyzed using ImmunoSpot software (Cellular Technology Ltd). For SIY-pentamer staining, splenocytes were preincubated for 15 min with anti-CD16/32 monoclonal antibody (93) to block potential nonspecific binding, and labeled with PE-MHC class I pentamer (Proimmune) consisting of murine H-2K^b complexed to […] (SIY) peptide, anti-TCRβ-AF700 (H57-597), anti-CD8-Pacific Blue (53-6.7), anti-CD4-Pacific Orange (RM4-5) (all antibodies from BioLegend) and the Fixable Viability Dye eFluor 450 (eBioscience). Stained cells were analyzed using LSR II cytometer with FACSDiva software (BD). Data analysis was conducted with FlowJo software (Tree Star).

[1] = system: BM-DCs (CD40, CD86, MHC class II); assay: Expression of activation markers on BM-DCs by flow cytometry; type: cell-based, mouse; details: WT versus STING-deficient BM-DCs; DMXAA 25 μg/ml or LPS 100 ng/ml
Method: Expression of activation markers by flow cytometry. […] Stained cells were analyzed using LSR II cytometer with FACSDiva software (BD) or FACSVerse with FACSuite software. Data analysis was conducted with FlowJo software (Tree Star).

TRAMP-C2 tumors = assay: Intratumoral treatment of TRAMP-C2 tumors; type: in vivo, mouse; details: C57BL/6 mice, single IT dose of 500 μg DMXAA
Method: as §1

4T-1 tumors = assay: Intratumoral treatment of 4T-1 tumors; type: in vivo, mouse; details: BALB/c mice, single IT dose of 500 μg DMXAA
Method: as §1

For `Cc1ccc2c(=O)c3cccc(CC(=O)O)c3oc2c1C` [DMXAA, 5,6-dimethylXAA (xanthenone-4-acetic acid)], the tumor growth (Ag104L tumors) is listed as “significantly reduced the growth”, the antitumor effect (tumors) is listed as “induced haemorrhagic necrosis and tumour regression” and the “frequencies of SIY-specific T cells” value (SIY antigen; STING^−/− mice) is listed as “markedly reduced”. The “SIY-specific CD8+ T cells by SIY pentamer staining” value (SIY antigen; WT mice, spleens (b243 also tumors), after IT DMXAA) was “higher amount of CD8+ SIY specific T cells; also recorded: high frequency of SIY-specific CD8^+ T cells”, the “endogenous T cell response against SIY (ELISPOT and CD8 SIY positive cells in spleen and tumors)” value (SIY antigen; one week after injection) was “highly increased” and the “increase in number of specific T cells producing IFN-g upon stimulation with SIY (ELISPOT)” value (SIY antigen; one week after injection, versus saline) was 10 fold. For the same molecule, the “frequency of SIY-specific IFN-γ-producing T cells (ELISPOT)” value (SIY antigen; splenocytes 5 days after treatment, 500 μg IT, WT mice) was “marked increase”, the “induction of co-stimulatory molecules (CD40, CD86, MHC class II)” value [1] was “upregulated activation markers such as CD40 and C86 in a STING dependent manner; also recorded: observed only in WT cells” and the tumor growth (TRAMP-C2 tumors) was “significantly reduced the growth”. The tumor growth (4T-1 tumors) was “significantly reduced the growth”.
